Experimental data from the supplement of paper PMC10307832.

Key:
Assay in all cases: relative viability (nuclei count vs DMSO), 5 days (fraction); higher = more cells survive
BEN = system: BEN
Procedure, shortened: (§1)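 Lung cancer cell lines, seeded in 1536-well plates, were treated the following day by pin tool with a single drug or with five library-drug doses (not always all listed) in √10 steps on top of a fixed anchor-drug dose. Cells were fixed and nuclei stained in one step after 5 days, and nuclei were counted. Relative viability is the nuclei count for treated wells divided by that for vehicle wells, reported as medians of duplicate plates.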

ChaGo-K-1 = system: ChaGo-K-1
Procedure, shortened: as §1

LC-2-ad = system: LC-2-ad
Procedure, shortened: as §1

LCLC-97TM1 = system: LCLC-97TM1
Procedure, shortened: as §1

LK-2 = system: LK-2
Procedure, shortened: as §1

LU99A = system: LU99A
Procedure, shortened: as §1

LXF-289 = system: LXF-289
Procedure, shortened: as §1

NCI-H1355 = system: NCI-H1355
Procedure, shortened: as §1

NCI-H1651 = system: NCI-H1651
Procedure, shortened: as §1

NCI-H1666 = system: NCI-H1666
Procedure, shortened: as §1

NCI-H1944 = system: NCI-H1944
Procedure, shortened: as §1

NCI-H1975 = system: NCI-H1975
Procedure, shortened: as §1

NCI-H2087 = system: NCI-H2087
Procedure, shortened: as §1

NCI-H2342 = system: NCI-H2342
Procedure, shortened: as §1

NCI-H358 = system: NCI-H358
Procedure, shortened: as §1

NCI-H596 = system: NCI-H596
Procedure, shortened: as §1

NCI-H650 = system: NCI-H650
Procedure, shortened: as §1

NCI-H661 = system: NCI-H661
Procedure, shortened: as §1

NCI-H838 = system: NCI-H838
Procedure, shortened: as §1

PC-3 [JPC-3] = system: PC-3 [JPC-3]
Procedure, shortened: as §1

SK-MES-1 = system: SK-MES-1
Procedure, shortened: as §1

O=c1cc(-c2cccc3c2Sc2ccccc2S3)oc(N2CCOCC2)c1 + CCNC(=O)c1noc(-c2cc(C(C)C)c(O)cc2O)c1-c1ccc(CN2CCOCC2)cc1 [Luminespib] (partner 0.01 µM)
relative viability (BEN; first compound 0.08 µM): 0.223 | relative viability (BEN; first compound 0.253 µM): 0.435 | relative viability (BEN; first compound 0.8 µM): 0.294 | relative viability (BEN; first compound 2.53 µM): 0.271 | relative viability (BEN; first compound 8 µM): 0.387 | relative viability (ChaGo-K-1; first compound 0.08 µM): 0.533 | relative viability (ChaGo-K-1; first compound 0.253 µM): 0.763 | relative viability (ChaGo-K-1; first compound 0.8 µM): 0.658 | relative viability (ChaGo-K-1; first compound 2.53 µM): 0.67 | relative viability (ChaGo-K-1; first compound 8 µM): 0.548 | relative viability (LC-2-ad; first compound 0.08 µM): 0.979 | relative viability (LC-2-ad; first compound 0.253 µM): 1.12 | relative viability (LC-2-ad; first compound 0.8 µM): 1.13 | relative viability (LC-2-ad; first compound 2.53 µM): 0.955 | relative viability (LC-2-ad; first compound 8 µM): 0.965 | relative viability (LCLC-97TM1; first compound 0.08 µM): 0.815 | relative viability (LCLC-97TM1; first compound 0.253 µM): 0.733 | relative viability (LCLC-97TM1; first compound 0.8 µM): 0.807 | relative viability (LCLC-97TM1; first compound 2.53 µM): 0.71 | relative viability (LCLC-97TM1; first compound 8 µM): 0.708 | relative viability (LK-2; first compound 0.08 µM): 0.184 | relative viability (LK-2; first compound 0.253 µM): 0.184 | relative viability (LK-2; first compound 0.8 µM): 0.151 | relative viability (LK-2; first compound 2.53 µM): 0.22 | relative viability (LK-2; first compound 8 µM): 0.176 | relative viability (LU99A; first compound 0.08 µM): 0.211 | relative viability (LU99A; first compound 0.253 µM): 0.219 | relative viability (LU99A; first compound 0.8 µM): 0.259 | relative viability (LU99A; first compound 2.53 µM): 0.221 | relative viability (LU99A; first compound 8 µM): 0.306 | relative viability (LXF-289; first compound 0.08 µM): 0.607 | relative viability (LXF-289; first compound 0.253 µM): 0.764 | relative viability (LXF-289; first compound 0.8 µM): 0.636 | relative viability (LXF-289; first compound 2.53 µM): 0.69 | relative viability (LXF-289; first compound 8 µM): 0.765 | relative viability (NCI-H1355; first compound 0.08 µM): 0.847 | relative viability (NCI-H1355; first compound 0.253 µM): 0.641 | relative viability (NCI-H1355; first compound 0.8 µM): 0.722 | relative viability (NCI-H1355; first compound 2.53 µM): 0.73 | relative viability (NCI-H1355; first compound 8 µM): 0.605 | relative viability (NCI-H1651; first compound 0.08 µM): 0.81 | relative viability (NCI-H1651; first compound 0.253 µM): 0.93 | relative viability (NCI-H1651; first compound 0.8 µM): 0.889 | relative viability (NCI-H1651; first compound 2.53 µM): 0.807 | relative viability (NCI-H1651; first compound 8 µM): 0.791 | relative viability (NCI-H1666; first compound 0.08 µM): 1.01 | relative viability (NCI-H1666; first compound 0.253 µM): 1.09 | relative viability (NCI-H1666; first compound 0.8 µM): 1.01 | relative viability (NCI-H1666; first compound 2.53 µM): 1.06 | relative viability (NCI-H1666; first compound 8 µM): 1.17 | relative viability (NCI-H1944; first compound 0.08 µM): 0.678 | relative viability (NCI-H1944; first compound 0.253 µM): 0.746 | relative viability (NCI-H1944; first compound 0.8 µM): 0.72 | relative viability (NCI-H1944; first compound 2.53 µM): 0.684 | relative viability (NCI-H1944; first compound 8 µM): 0.758 | relative viability (NCI-H1975; first compound 0.08 µM): 0.121 | relative viability (NCI-H1975; first compound 0.253 µM): 0.167 | relative viability (NCI-H1975; first compound 0.8 µM): 0.15 | relative viability (NCI-H1975; first compound 2.53 µM): 0.231 | relative viability (NCI-H1975; first compound 8 µM): 0.169 | relative viability (NCI-H2087; first compound 0.08 µM): 0.2 | relative viability (NCI-H2087; first compound 0.253 µM): 0.163 | relative viability (NCI-H2087; first compound 0.8 µM): 0.155 | relative viability (NCI-H2087; first compound 2.53 µM): 0.163 | relative viability (NCI-H2087; first compound 8 µM): 0.2 | relative viability (NCI-H2342; first compound 0.08 µM): 0.676 | relative viability (NCI-H2342; first compound 0.253 µM): 0.68 | relative viability (NCI-H2342; first compound 0.8 µM): 0.715 | relative viability (NCI-H2342; first compound 2.53 µM): 0.663 | relative viability (NCI-H2342; first compound 8 µM): 0.731 | relative viability (NCI-H358; first compound 0.08 µM): 0.154 | relative viability (NCI-H358; first compound 0.253 µM): 0.388 | relative viability (NCI-H358; first compound 0.8 µM): 0.329 | relative viability (NCI-H358; first compound 2.53 µM): 0.375 | relative viability (NCI-H358; first compound 8 µM): 0.292 | relative viability (NCI-H596; first compound 0.08 µM): 1.06 | relative viability (NCI-H596; first compound 0.253 µM): 0.957 | relative viability (NCI-H596; first compound 0.8 µM): 0.763 | relative viability (NCI-H596; first compound 2.53 µM): 0.891 | relative viability (NCI-H596; first compound 8 µM): 0.852 | relative viability (NCI-H650; first compound 0.08 µM): 0.711 | relative viability (NCI-H650; first compound 0.253 µM): 0.756 | relative viability (NCI-H650; first compound 0.8 µM): 0.873 | relative viability (NCI-H650; first compound 8 µM): 0.813 | relative viability (NCI-H661; first compound 0.08 µM): 0.914 | relative viability (NCI-H661; first compound 0.253 µM): 0.939 | relative viability (NCI-H661; first compound 0.8 µM): 0.893 | relative viability (NCI-H661; first compound 2.53 µM): 0.897 | relative viability (NCI-H661; first compound 8 µM): 0.891 | relative viability (NCI-H838; first compound 0.08 µM): 0.277 | relative viability (NCI-H838; first compound 0.253 µM): 0.264 | relative viability (NCI-H838; first compound 0.8 µM): 0.371 | relative viability (NCI-H838; first compound 2.53 µM): 0.313 | relative viability (NCI-H838; first compound 8 µM): 0.23 | relative viability (PC-3 [JPC-3]; first compound 0.08 µM): 0.685 | relative viability (PC-3 [JPC-3]; first compound 0.253 µM): 0.765 | relative viability (PC-3 [JPC-3]; first compound 0.8 µM): 0.862 | relative viability (PC-3 [JPC-3]; first compound 2.53 µM): 0.687 | relative viability (PC-3 [JPC-3]; first compound 8 µM): 0.493 | relative viability (SK-MES-1; first compound 0.08 µM): 0.775 | relative viability (SK-MES-1; first compound 0.253 µM): 0.748 | relative viability (SK-MES-1; first compound 0.8 µM): 0.734 | relative viability (SK-MES-1; first compound 2.53 µM): 0.522 | relative viability (SK-MES-1; first compound 8 µM): 0.505
